# Patent US9113629B2, “4-amino-6-(4-substituted-phenyl)-picolinates and 6-amino-2-(4-substituted-phenyl)-pyrimidine-4-carboxylates and their use as herbicides” (DOW AGROSCIENCES LLC, priority 2013, dated 2015)
# Test system: Key Grass and Sedge Weeds as well as Grass Crops
# Assay: Post-emergent Test II herbicidal activity (Table 6)
# Assay type: in vivo
# Details: post-emergence, 336 h, CYPES: yellow nutsedge (Cyperus esculentus), 70 g ai/ha, read-out: Visual Growth Reduction (%) 14 Days After Application, CYPES
# In short: (§1)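 Post-emergence foliar spray, 187 L/ha, track sprayer at 43 cm above canopy. Carrier: acetone/water/IPA/DMSO/Atplus 411F/Triton X-155. Plants at 1st–2nd true leaf; subirrigated afterwards; % injury scored visually at 14 d.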
row,Structure (SMILES),pest or weed control at 70 g/ha
1,COC(=O)c1nc(-c2ccc(OC(F)F)cc2F)c(F)c(N)c1Cl [Compound 104],0 to 29%

# Same assay, conditions: post-emergence, 336 h, CYPES: yellow nutsedge (Cyperus esculentus), 140 g ai/ha, read-out: Visual Growth Reduction (%) 14 Days After Application, CYPES
row,Structure (SMILES),pest or weed control at 140 g/ha
1,COC(=O)c1nc(-c2ccc(OC(F)F)cc2F)c(F)c(N)c1Cl [Compound 104],45 to 59%

# Same assay, conditions: post-emergence, 336 h, DIGSA: crabgrass (Digitaria sanguinalis), 70 g ai/ha, read-out: Visual Growth Reduction (%) 14 Days After Application, DIGSA
row,Structure (SMILES),pest or weed control at 70 g/ha
1,COC(=O)c1nc(-c2ccc(OC(F)F)cc2F)c(F)c(N)c1Cl [Compound 104],0 to 29%

# Same assay, conditions: post-emergence, 336 h, DIGSA: crabgrass (Digitaria sanguinalis), 140 g ai/ha, read-out: Visual Growth Reduction (%) 14 Days After Application, DIGSA
row,Structure (SMILES),pest or weed control at 140 g/ha
1,COC(=O)c1nc(-c2ccc(OC(F)F)cc2F)c(F)c(N)c1Cl [Compound 104],0 to 29%

# Same assay, conditions: post-emergence, 336 h, ECHCG: barnyardgrass (Echinochloa crus-galli), 70 g ai/ha, read-out: Visual Growth Reduction (%) 14 Days After Application, ECHCG
row,Structure (SMILES),pest or weed control at 70 g/ha
1,COC(=O)c1nc(-c2ccc(OC(F)F)cc2F)c(F)c(N)c1Cl [Compound 104],0 to 29%

# Same assay, conditions: post-emergence, 336 h, ECHCG: barnyardgrass (Echinochloa crus-galli), 140 g ai/ha, read-out: Visual Growth Reduction (%) 14 Days After Application, ECHCG
row,Structure (SMILES),pest or weed control at 140 g/ha
1,COC(=O)c1nc(-c2ccc(OC(F)F)cc2F)c(F)c(N)c1Cl [Compound 104],0 to 29%

# Same assay, conditions: post-emergence, 336 h, ORYSA: rice (Oryza sativa), crop, 70 g ai/ha, read-out: Visual Growth Reduction (%) 14 Days After Application, ORYSA
row,Structure (SMILES),pest or weed control at 70 g/ha
1,COC(=O)c1nc(-c2ccc(OC(F)F)cc2F)c(F)c(N)c1Cl [Compound 104],0 to 29%

# Same assay, conditions: post-emergence, 336 h, ORYSA: rice (Oryza sativa), crop, 140 g ai/ha, read-out: Visual Growth Reduction (%) 14 Days After Application, ORYSA
row,Structure (SMILES),pest or weed control at 140 g/ha
1,COC(=O)c1nc(-c2ccc(OC(F)F)cc2F)c(F)c(N)c1Cl [Compound 104],0 to 29%

# Same assay, conditions: post-emergence, 336 h, SETFA: giant foxtail (Setaria faberi), 70 g ai/ha, read-out: Visual Growth Reduction (%) 14 Days After Application, SETFA
row,Structure (SMILES),pest or weed control at 70 g/ha
1,COC(=O)c1nc(-c2ccc(OC(F)F)cc2F)c(F)c(N)c1Cl [Compound 104],0 to 29%

# Same assay, conditions: post-emergence, 336 h, SETFA: giant foxtail (Setaria faberi), 140 g ai/ha, read-out: Visual Growth Reduction (%) 14 Days After Application, SETFA
row,Structure (SMILES),pest or weed control at 140 g/ha
1,COC(=O)c1nc(-c2ccc(OC(F)F)cc2F)c(F)c(N)c1Cl [Compound 104],0 to 29%

# Same assay, conditions: post-emergence, 336 h, SORVU: grain sorghum (Sorghum vulgare), 70 g ai/ha, read-out: Visual Growth Reduction (%) 14 Days After Application, SORVU
row,Structure (SMILES),pest or weed control at 70 g/ha
1,COC(=O)c1nc(-c2ccc(OC(F)F)cc2F)c(F)c(N)c1Cl [Compound 104],0 to 29%

# Same assay, conditions: post-emergence, 336 h, SORVU: grain sorghum (Sorghum vulgare), 140 g ai/ha, read-out: Visual Growth Reduction (%) 14 Days After Application, SORVU
row,Structure (SMILES),pest or weed control at 140 g/ha
1,COC(=O)c1nc(-c2ccc(OC(F)F)cc2F)c(F)c(N)c1Cl [Compound 104],45 to 59%

# Same assay, conditions: post-emergence, 336 h, TRZSS (wheat, Triticum aestivum), crop, 70 g ai/ha, read-out: Visual Growth Reduction (%) 14 Days After Application, TRZSS
row,Structure (SMILES),pest or weed control at 70 g/ha
1,COC(=O)c1nc(-c2ccc(OC(F)F)cc2F)c(F)c(N)c1Cl [Compound 104],0 to 29%

# Same assay, conditions: post-emergence, 336 h, TRZSS (wheat, Triticum aestivum), crop, 140 g ai/ha, read-out: Visual Growth Reduction (%) 14 Days After Application, TRZSS
row,Structure (SMILES),pest or weed control at 140 g/ha
1,COC(=O)c1nc(-c2ccc(OC(F)F)cc2F)c(F)c(N)c1Cl [Compound 104],0 to 29%

# Same assay, conditions: post-emergence, 336 h, ZEAMX: maize, corn (Zea mays), crop, 70 g ai/ha, read-out: Visual Growth Reduction (%) 14 Days After Application, ZEAMX
row,Structure (SMILES),pest or weed control at 70 g/ha
1,COC(=O)c1nc(-c2ccc(OC(F)F)cc2F)c(F)c(N)c1Cl [Compound 104],45 to 59%

# Same assay, conditions: post-emergence, 336 h, ZEAMX: maize, corn (Zea mays), crop, 140 g ai/ha, read-out: Visual Growth Reduction (%) 14 Days After Application, ZEAMX
row,Structure (SMILES),pest or weed control at 140 g/ha
1,COC(=O)c1nc(-c2ccc(OC(F)F)cc2F)c(F)c(N)c1Cl [Compound 104],95 to 100%

# Test system: Key Broadleaf Weed and Crop Species
# Assay: Post-emergent Test II herbicidal activity (Table 5)
# Assay type: in vivo
# Details: post-emergence, 336 h; ABUTH: velvetleaf (Abutilon theophrasti); application rate 70 g ai/ha; 14 days after application; read-out: Visual Growth Reduction (%) 14 Days After Application, ABUTH
# In short: as §1
row,Structure (SMILES),pest or weed control at 70 g/ha
1,COC(=O)c1nc(-c2ccc(OC(F)F)cc2F)c(F)c(N)c1Cl [Compound 104],45 to 59%

# Same assay, conditions: post-emergence, 336 h; ABUTH: velvetleaf (Abutilon theophrasti); application rate 140 g ai/ha; 14 days after application; read-out: Visual Growth Reduction (%) 14 Days After Application, ABUTH
row,Structure (SMILES),pest or weed control at 140 g/ha
1,COC(=O)c1nc(-c2ccc(OC(F)F)cc2F)c(F)c(N)c1Cl [Compound 104],45 to 59%

# Same assay, conditions: post-emergence, 336 h; AMARE: redroot pigweed (Amaranthus retroflexus); application rate 70 g ai/ha; 14 days after application; read-out: Visual Growth Reduction (%) 14 Days After Application, AMARE
row,Structure (SMILES),pest or weed control at 70 g/ha
1,COC(=O)c1nc(-c2ccc(OC(F)F)cc2F)c(F)c(N)c1Cl [Compound 104],0 to 29%

# Same assay, conditions: post-emergence, 336 h; AMARE: redroot pigweed (Amaranthus retroflexus); application rate 140 g ai/ha; 14 days after application; read-out: Visual Growth Reduction (%) 14 Days After Application, AMARE
row,Structure (SMILES),pest or weed control at 140 g/ha
1,COC(=O)c1nc(-c2ccc(OC(F)F)cc2F)c(F)c(N)c1Cl [Compound 104],0 to 29%

# Same assay, conditions: post-emergence, 336 h; BRSNN: oilseed-rape, canola (Brassica napus); application rate 70 g ai/ha; 14 days after application; read-out: Visual Growth Reduction (%) 14 Days After Application, BRSNN
row,Structure (SMILES),pest or weed control at 70 g/ha
1,COC(=O)c1nc(-c2ccc(OC(F)F)cc2F)c(F)c(N)c1Cl [Compound 104],0 to 29%

# Same assay, conditions: post-emergence, 336 h; BRSNN: oilseed-rape, canola (Brassica napus); application rate 140 g ai/ha; 14 days after application; read-out: Visual Growth Reduction (%) 14 Days After Application, BRSNN
row,Structure (SMILES),pest or weed control at 140 g/ha
1,COC(=O)c1nc(-c2ccc(OC(F)F)cc2F)c(F)c(N)c1Cl [Compound 104],0 to 29%

# Same assay, conditions: post-emergence, 336 h; CHEAL: lambsquarters (Chenopodium album); application rate 70 g ai/ha; 14 days after application; read-out: Visual Growth Reduction (%) 14 Days After Application, CHEAL
row,Structure (SMILES),pest or weed control at 70 g/ha
1,COC(=O)c1nc(-c2ccc(OC(F)F)cc2F)c(F)c(N)c1Cl [Compound 104],0 to 29%

# Same assay, conditions: post-emergence, 336 h; CHEAL: lambsquarters (Chenopodium album); application rate 140 g ai/ha; 14 days after application; read-out: Visual Growth Reduction (%) 14 Days After Application, CHEAL
row,Structure (SMILES),pest or weed control at 140 g/ha
1,COC(=O)c1nc(-c2ccc(OC(F)F)cc2F)c(F)c(N)c1Cl [Compound 104],0 to 29%

# Same assay, conditions: post-emergence, 336 h; EPHHL: wild poinsettia (Euphorbia heterophylla); application rate 70 g ai/ha; 14 days after application; read-out: Visual Growth Reduction (%) 14 Days After Application, EPHHL
row,Structure (SMILES),pest or weed control at 70 g/ha
1,COC(=O)c1nc(-c2ccc(OC(F)F)cc2F)c(F)c(N)c1Cl [Compound 104],75 to 84%

# Same assay, conditions: post-emergence, 336 h; EPHHL: wild poinsettia (Euphorbia heterophylla); application rate 140 g ai/ha; 14 days after application; read-out: Visual Growth Reduction (%) 14 Days After Application, EPHHL
row,Structure (SMILES),pest or weed control at 140 g/ha
1,COC(=O)c1nc(-c2ccc(OC(F)F)cc2F)c(F)c(N)c1Cl [Compound 104],85 to 94%

# Same assay, conditions: post-emergence, 336 h; HELAN: sunflower (Helianthus annuus); application rate 70 g ai/ha; 14 days after application; read-out: Visual Growth Reduction (%) 14 Days After Application, HELAN
row,Structure (SMILES),pest or weed control at 70 g/ha
1,COC(=O)c1nc(-c2ccc(OC(F)F)cc2F)c(F)c(N)c1Cl [Compound 104],75 to 84%

# Same assay, conditions: post-emergence, 336 h; HELAN: sunflower (Helianthus annuus); application rate 140 g ai/ha; 14 days after application; read-out: Visual Growth Reduction (%) 14 Days After Application, HELAN
row,Structure (SMILES),pest or weed control at 140 g/ha
1,COC(=O)c1nc(-c2ccc(OC(F)F)cc2F)c(F)c(N)c1Cl [Compound 104],75 to 84%

# Same assay, conditions: post-emergence, 336 h; VIOTR: wild pansy (Viola tricolor); application rate 70 g ai/ha; 14 days after application; read-out: Visual Growth Reduction (%) 14 Days After Application, VIOTR
row,Structure (SMILES),pest or weed control at 70 g/ha
1,COC(=O)c1nc(-c2ccc(OC(F)F)cc2F)c(F)c(N)c1Cl [Compound 104],0 to 29%

# Same assay, conditions: post-emergence, 336 h; VIOTR: wild pansy (Viola tricolor); application rate 140 g ai/ha; 14 days after application; read-out: Visual Growth Reduction (%) 14 Days After Application, VIOTR
row,Structure (SMILES),pest or weed control at 140 g/ha
1,COC(=O)c1nc(-c2ccc(OC(F)F)cc2F)c(F)c(N)c1Cl [Compound 104],0 to 29%

# Test system: not given
# Assay: not given
# Details: not given
row,melting point,Structure (SMILES)
1,127 to 129 °C,COC(=O)c1nc(-c2ccc(OC(F)F)cc2F)c(F)c(N)c1Cl [Compound 104]
